Experimental findings from patent US20090030073A1, “PLANT-DERIVED THERAPEUTIC AGENT FOR MALIGNANT” (priority 2006, published 2009) are described below.

The structures appear in SMILES notation.

The subject of this series is neuroblastoma cell strains IMR-32, SK—N—SH, and NB-39. As to the kind of experiment: MTT assay, anti-malignant-tumor effect on neuroblastoma cell strains. The class given is cell-based. The following applies: 48 hours incubation. The protocol:
The anti-malignant-tumor effect of compounds (1), (2a), (2b), and (2c) on neuroblastoma cell strains IMR-32, SK—N—SH, and NB-39 was investigated using the MTT assay.
Specifically, each type of cells was seeded onto a 96-well plate so that the cell density was adjusted to 1×10^4 cells/well, and each drug compound was added to the wells 24 hours after seeding, followed by incubation under 5%-CO2 at 37° C. for 48 hours. Subsequently, an MTT solution was added to the wells, and blue formazan formed three hours after addition was well-mixed through pipetting. The absorbance of each well was measured at 570 nm (top) and 655 nm (bottom), and the survival cell rate with respect to the control group was calculated. In this assay, formation of blue formazan caused by activity of mitochondria is observed only when cells survive.
A general note: Tetrazolium dyes change colour on reduction, which living cells bring about.
On to `C=CC[C@]12CC=CC(=O)[C@@]1(O)O[C@H](c1ccc(OC)c(OC)c1)[C@H]2C` [compound (2a)], for which the “cytotoxicity to neuroblastoma cells (survival cell rate, FIGS. 2 to 13)” value (“cytotoxicity to neuroblastoma cells” for short) was “intense cytotoxicity”.
Turning to `C=CC[C@]12CC=CC(=O)[C@@]1(O)O[C@H](c1cc(OC)c3c(c1)OCO3)[C@H]2C` [compound (2c), ferrearin G], the “cytotoxicity to neuroblastoma cells” value is listed as “intense cytotoxicity”.
As to `C=CCOc1c(OC)cc2c(c1OC)O[C@H](c1ccc3c(c1)OCO3)[C@H]2C` [compound (1)], the “cytotoxicity to neuroblastoma cells” value is recorded as “intense cytotoxicity”.
As for `C=CC[C@]12CC=CC(=O)[C@@]1(O)OC(c1ccc3c(c1)OCO3)[C@H]2C` (stereo partly shown) [compound (2b), ferrearin C], the entry is “intense cytotoxicity”.
